Laboratory results published in patent publication US20030008847A1, “Treatment of diabetes and related pathologies” (Medicure, Inc., priority 1999, published 2003).

Assays:
[1] = system: rats induced with Type II diabetes; test: Type II diabetes in rats induced by sucrose feeding; plasma glucose, plasma insulin, systolic blood pressure; type: in vivo, Male Sprague-Dawley rats; conditions: P-5-P 25 mg/kg orally/day; for plasma glucose levels: FIG. 3; for plasma glucose levels / plasma insulin levels: compared to diabetic group, tolbutamide 40 and 20 mg/kg, 16 weeks; for plasma insulin levels: FIG. 4
Procedure: To determine the effect of a compound suitable for use in methods of the invention on glucose and insulin levels, as well as increases in systolic blood pressure, rats having type II diabetes are administered pyridoxal-5'-phosphate, either alone or in combination with sucrose and/or tolbutamide, and their systolic blood pressure, urine and blood glucose and insulin levels are determined. […] et al: Isr J Med Sci; 33:153-159. […] et al: Isr J Med Sci; 33:153-159, a high sucrose or fructose diet for a prolonged period is one technique used to induce Type II diabetes, specifically hypertension associated with hyperglycemia and hyperinsulinemia in animals. Male Sprague-Dawley (Charles River Laboratories, Montreal, Canada) rats weighing approximately 200 g are randomly separated into the following groups with each group having 5 amimals: a) The control group that was fed a normal diet and provided with drinking water b) The sucrose group that was fed 35% sucrose (35 gm sucrose/100 ml of drinking water/day) with an average intake of 150 ml/rat/day c) The sucrose+[…] group that was fed sucrose as stated in b above and 25 mg/kg orally/day of […] g) The sucrose+tolbutamide group that was fed sucrose as stated in b above and 20 mg/kg orally/day of tolbutamide. Total duration of the study was 16 weeks. Plasma insulin levels were measured using Rat Insulin RIA Kit (Linco Research Inc., St. Charles, Mo.). Plasma glucose levels were done using the Infinity Glucose Reagent® (Sigma Diagnostics, St. Louis, Mo.).

[2] = system: rats induced with Type I diabetes; test: Type I diabetes in rats induced with streptozotocin; glucose and insulin levels; type: in vivo, Male Sprague-Dawley rats; conditions: compared to diabetic group, Insulin 1 unit and 3 unit, P-5-P 25 mg/kg daily; for plasma glucose levels: FIG. 1; for plasma insulin levels: FIG. 2
Procedure: Male Sprague-Dawley (Charles River Laboratories, Montreal, Canada) rats weighing approximately 200 g are randomly separated into control and experimental groups. All experimental animals are given an intravenous injection of 0.1 M citrate buffered streptozotocin (pH 4.5) at a dosage of 65 mg/kg of body weight to induce diabetes mellitus. All control animals receive an intravenous injection of 0.1 M citrate buffer (pH 4.5) alone. One experimental group of rats also receives daily doses of pyridoxal-5′-phosphate (25 mg/kg body weight) (Aldrich Canada Ltd., Ontario, Canada). A second experimental group receives daily subcutanteous injections of Humulin® N (3 units per day) (insulin isophene, human biosynthetic; Eli Lilly and Co., Indianapolis, Ind.). A third experimental group receives both daily subcutaneous injections of Humulin® N (3 units per day) and a daily dose of pyridoxal-5′-phosphate (25 mg/kg body weight). […] […] All animals are fed rat chow and water ad libitum. Plasma glucose levels were done using the Infinity Glucose Reagent® (Sigma Diagnostics, St. Louis, Mo.).

Compound	plasma glucose levels [1]	plasma insulin levels [1]	rise in systolic blood pressure ([1]; FIG. 5, tail cuff, compared to diabetic and tolbutamide treatment groups)	plasma glucose levels [2]	plasma insulin levels [2]
Cc1ncc(COP(=O)(O)O)c(C=O)c1O [Example P-5-P, pyridoxal-5′-phosphate]	significantly decreased	significantly decreased	significantly decreased	significantly reduced	significantly increased
Insulin: Humulin® N (insulin isophene, human biosynthetic; Eli Lilly and Co.)				significantly reduced	significantly increased
CCCCNC(=O)NS(=O)(=O)c1ccc(C)cc1 [tolbutamide, reference compound]	significantly decreased	significantly decreased			
